Reference: patent US11964014B2, “Vaccine adjuvants based on TLR receptor ligands” (priority 2019, dated 2024)

Legend:
[1] = test system: monovalent (A/Victoria, H3N2) split flu antigen; assay type: in vivo, Balb/c mice; details: i.m.
[2] = test system: primary human peripheral blood mononuclear cells (PBMCs); experiment: Cytokine (IFNα, IL-12p70, TNFα) induction in human PBMCs stimulated with TLR agonists; assay type: cell-based; details: human PBMC
Method: IFNα and IL-12p70 responses were measured in primary human peripheral blood mononuclear cells (PBMCs) after exposure to various concentrations of oxoadenine compounds.
Liposomes were prepared using the thin film method: phospholipids (DOPC and cholesterol at 40 and 10 mg/mL respectively) and agonist(s) (TLR7/8 agonist fixed at 2 mg/mL) were dissolved in chloroform at the desired concentration in a round bottom flask. The solvent was removed under vacuum by rotary evaporation at 45° C., and the resulting dried film was placed in a vacuum chamber overnight to remove any residual solvent. Rehydration buffer was added to the dried film and the suspension was sonicated to resuspend the phospholipids and form the unilamellar vesicles. Sonication continued until the particle size was<200 nm, at which time the formulations were sterile filtered through a 0.22 μm PVDF filter. Concentrations of agonist(s) in the formulations was determined by RP-HPLC using a five-point standard curve. Human whole blood was collected from normal healthy donors at the University of Montana (Missoula, MT) using an Institutional Review Board approved protocol. […] Culture supernatants were analyzed for IL-12p70 and IFNα levels using human IL-12p70 DuoSet (R) ELISA kit (R&D Systems, Minneapolis, MN) and human IFNα VeriKine ELISA kit (Pestka Biomedical Laboratories, Inc., Piscataway, NJ).

[3] = test system: CT26 cells (murine colon cancer cell line); experiment: CT26 syngeneic tumor model, tumor growth; assay type: in vivo; details: CT26 s.c. in female Balb/c mice; 10 μg or 50 μg IV once a week for two weeks, 2% glycerol in sterile water (FIG. 6A, 6B)
Method: Young, female Balb/c mice (approximately 8 weeks old) were implanted with 1×10^6 CT26 cells (murine colon cancer cell line, syngeneic in Balb/c mice) subcutaneously in the right flank. When tumors reached an average size of 75 mm^3 (11 days after CT26 cells were implanted), mice were randomized into treatment groups. Beginning on day 12, 10 μg or 50 μg of UM-1007 in an aqueous formulation (2% glycerol in sterile water) was injected IV once a week for two weeks.

CCCCCCCCCCCCCCCC(=O)OC[C@H](COCCOCCOCCOP(=O)(O)OCCN1CCC(Cn2c(O)nc3c(N)nc(O[C@@H](C)CCC)nc32)CC1)OC(=O)CCCCCCCCCCCCCCC [UM-1007]
Anti-influenza IgG titers over antigen-only vaccinated animals ([1]; Balb/c mice, liposomes, 10 μg UM-1007 alone): 17 fold | Dose dependence of anti-influenza IgG titer enhancement ([1]; Balb/c mice, liposomes, 14dp2 (FIG. 3B)): enhanced titers in a dose-dependent manner | Anti-influenza IgG titers over the antigen-alone group ([1]; Balb/c mice, liposomes, co-encapsulated with CRX-601 (TLR7/8:TLR4 ratio 10:1)): > 25 fold | Anti-influenza IgG titers after a single vaccination ([1]; naïve Balb/c mice, liposomes alone or co-encapsulated with CRX-601, 14dp1 (FIG. 3A)): Strong anti-influenza IgG titers | IFNα induction potency compared with the non-PEGylated oxoadenine Compound B ([2]; 24 h, liposomes, alone or in combination with TLR4 agonist CRX-601 (FIG. 2A)): more potent IFNα inducer | IL-12p70 induction potency relative to Compound B ([2]; combined with TLR4 agonist CRX-601 (FIG. 2B)): 125 fold | Tumor growth compared to treatment naive controls [3]: slower tumor growth
